Experimental data from patent US20260115189A1, “Combination Treatment Regimens - SMARCA2 Degrader With Taxane Anticancer Agent” (PRELUDE THERAPEUTICS INCORPORATED, priority 2023, published 2026).
Entries after “also recorded” stand apart in the source; their conditions may differ. Read-outs that look alike come from different tables or passages of the source.

Key:
[1] = target: T1, SMARCA2 protein (Homo sapiens, UniProt P51531); test: Semi-quantitative western blot of SMARCA2 in tumor tissue; assay type: in vivo, mouse xenograft; settings: for tumor SMARCA2 protein levels: repeat administration, Formula (I) 100-200 mg/kg s.c. Q3D, over a 24 h period, docetaxel 5-20 mg/kg i.v. QW; for tumor SMARCA2 protein levels relative to vehicle treated mice: tumors collected 4 hr and 24 hr post final dosing, Formula (I) 100 mg/kg s.c. Q3D, docetaxel 10/5 mg/kg i.v. QW
T1 construct: from tissue; host or cells: Frozen xenograft tumor tissue from human lung cancer cells (NCI-H838, A549 or Calu-6) grown subcutaneously in mice
Procedure: SMARCA2 protein expression was measured by semi-quantitative western blot following extraction of protein from frozen tumor tissue. Up to 50 mg of frozen tumor tissue was measured and placed into 0.5 mL conical tubes containing 0.5 mm ceramic beads and 400 μL RIPA buffer containing 1× protease and phosphatase inhibitors (ThermoFisher Scientific, A32959) and PMSF (Cell Signaling Technology, #8553). Tissues were homogenized with a Bead Ruptor Elite at a speed of 5 m/sec for 25 seconds and centrifuged at 12,000 rpm for 3 min at 4° C. Milling and centrifugation steps were performed two additional times before transferring supernatant to UltraFree 0.45 μm 0.5 mL filter columns (Millipore Sigma, #UFC30HV) and centrifuging at 12,000 rpm for 1 min. Flow through lysate was quantified by BCA assay, diluted with 1 volume of RIPA lysis buffer, and mixed with Laemmli sample buffer. Lysates were boiled at 95° C. for 5 min and 30 μg of protein was loaded in 4-20% Criterion TGX Precast Midi Protein Gels (BioRad, #5671095). Protein was transferred to PVDF membranes by Trans-Blot Turbo system (Bio-Rad) and probed with Actin (Signma, #A2228) and SMARCA2 (Cell Signaling Technology, #11966) primary antibodies at a 1:1000 dilution and IRDye 800CW or IRDye 680RD secondary antibodies (LICOR, antibody, #926-68070) in iBind automated western system (ThermoFisher Scientific). The stained blots were scanned by LiCOR Odyssey CLx imaging system to acquire integrated intensities at 700 nm and 800 nm channel and analyzed using Image Studio software v5.2.

[2] = test system: SMARCA4-mutated NCI-H838 tumor tissues; test: RNA-sequencing and Gene Set Enrichment Analysis of treated tumor tissues; assay type: in vivo; settings: NCI-H838 tumor tissues treated for one week
Procedure: To elucidate the mechanism of action for the combination effects observed in vivo, RNA-sequencing was conducted on SMARCA4-mutated NCI-H838 tumor tissues treated with Formula (I) and/or docetaxel for one week.

[3] = test system: SMARCA4-deficient A549 Lung Cancer Xenograft; settings: for Tumor size: day 28, mean ± SEM
Procedure: (§1) As used herein, tumor growth inhibition is calculated as follows: Mean % Inhibition=(mean(C)−mean(T))/mean(C)*100%, wherein C is the tumor volume in the control arm, and T is the tumor volume in the treatment arm.
(§2) The A549 tumor cells were maintained in vitro with Ham's F12K medium supplemented with 10% fetal bovine serum at 37° C. in an atmosphere of 5% CO2 in air. The cells in exponential growth phase were harvested and quantitated by cell counter before tumor inoculation. BALB/c nude female mice were inoculated subcutaneously in the right front flank region with A549 tumor cells (5×10^6) in 0.1 ml of PBS for tumor development. The randomization was performed when the mean tumor size reaches approximately 100-150 mm^3.
(§3) Tumor volumes at the end of studies were evaluated by the Mann-Whitney test (unpaired, nonparametric test). * P<0.05 […], *** P<0.001 versus vehicle are shown in graphs.

[4] = test system: NCI-H838 cells (SMARCA4-del NSCLC cell line); test: Cell cycle analysis by flow cytometry (EdU / DRAQ5); assay type: cell-based, human; settings: NCI-H838, single agent, 48 hrs
Procedure: Cells were seeded, incubated overnight, and dosed with drug treatments the next day. 2 hours before collection, cells were incubated with 10 μM EdU at 37 C then harvested using trypsin EDTA and washed with PBS/1% BSA. 4% PFA was added to the cells followed by a 15 minute incubation at RT. Cell were washed again with PBS/1% BSA and resuspended in 1X Click-iT® saponin-based permeabilization reagent for 15-minutes. Following centrifugation, supernatant was removed, and cells were incubated for 30 mins at RT, protected from light, in Click-iT® reaction cocktail, which was prepared according to manufacturer's instructions. Cells were then washed once with 0.01% Triton in PBS and resuspended in PBS. DRAQ5™ was added to cells at 1:200 dilution, incubated at room temperature, preventing exposure to light, for 30-60 min. Lastly, cells were washed with PBS/1% BSA and resuspended in 400 μl PBS/1% BSA. EdU with Pacific Blue™ azide and was detected using 405 nm excitation with a violet emission filter (450/50 nm) on a flow cytometer and analyzed using FlowJo software.
The combination effects of Formula (I) and docetaxel on the cell cycle was analyzed in a SMARCA4-deficient NSCLC lung cancer cell line by flow cytometry using DraQ5 and Click-iT EdU Pacific Blue. […]

[5] = test system: SMARCA4-mutated cancer cell lines; test: Cell cycle arrest in SMARCA4-mutated cancer cell lines; assay type: cell-based
[6] = test system: SMARCA4-deficient NCI-H838 Lung Cancer Xenograft; settings: for Tumor size: day 20, mean ± SEM; for Tumor size / TGI (tumor growth inhibition vs vehicle): combination of both regimens; for TGI (tumor growth inhibition vs vehicle): day 20
Procedure: as §1
as §2, with “NCI-H838-#5” for “A549”, “RPMI1640” for “Ham's F12K”, “NOD-SCID” for “BALB/c nude”, “PBS mixed with Matrigel (1:1)” for “PBS”
as §3

[7] = test system: SMARCA4-WT Calu-6 Lung Cancer Xenograft; settings: for Tumor size: day 21, mean ± SEM; for Tumor size / TGI (tumor growth inhibition vs vehicle): Formula (I) 100 mg/kg Q3D, docetaxel 5/10 mg/kg QW, combination 100 + 5/10 mg/kg Q3D + QW; for TGI (tumor growth inhibition vs vehicle): day 21
Procedure: as §1
as §2, with “Calu-6” for “A549”, “MEM” for “Ham's F12K”
as §3

[8] = test system: SMARCA4 wild-type cell lines; test: Cell cycle arrest in SMARCA4 wild-type cell lines; assay type: cell-based
[9] = as printed in text: Formula (I) 200 mg/kg s.c. Q3D, docetaxel 5-20 mg/kg i.v. QW, combination Formula (I) 100 mg/kg s.c. Q3D + docetaxel 5-20 mg/kg i.v. QW
[10] = Formula (I) 100 mg/kg s.c. Q3D, docetaxel 5/10/20 mg/kg QW, combination 200 + 5/10/20 mg/kg Q3D + QW
[11] = day 28, Formula (I) 100 mg/kg s.c. Q3D, docetaxel 5/10/20 mg/kg QW, combination 200 + 5/10/20 mg/kg Q3D + QW
[12] = Formula (I) 100 mg/kg s.c. Q3D, docetaxel 10/5 mg/kg i.v. QW

T1 sequence (P51531 whole entry): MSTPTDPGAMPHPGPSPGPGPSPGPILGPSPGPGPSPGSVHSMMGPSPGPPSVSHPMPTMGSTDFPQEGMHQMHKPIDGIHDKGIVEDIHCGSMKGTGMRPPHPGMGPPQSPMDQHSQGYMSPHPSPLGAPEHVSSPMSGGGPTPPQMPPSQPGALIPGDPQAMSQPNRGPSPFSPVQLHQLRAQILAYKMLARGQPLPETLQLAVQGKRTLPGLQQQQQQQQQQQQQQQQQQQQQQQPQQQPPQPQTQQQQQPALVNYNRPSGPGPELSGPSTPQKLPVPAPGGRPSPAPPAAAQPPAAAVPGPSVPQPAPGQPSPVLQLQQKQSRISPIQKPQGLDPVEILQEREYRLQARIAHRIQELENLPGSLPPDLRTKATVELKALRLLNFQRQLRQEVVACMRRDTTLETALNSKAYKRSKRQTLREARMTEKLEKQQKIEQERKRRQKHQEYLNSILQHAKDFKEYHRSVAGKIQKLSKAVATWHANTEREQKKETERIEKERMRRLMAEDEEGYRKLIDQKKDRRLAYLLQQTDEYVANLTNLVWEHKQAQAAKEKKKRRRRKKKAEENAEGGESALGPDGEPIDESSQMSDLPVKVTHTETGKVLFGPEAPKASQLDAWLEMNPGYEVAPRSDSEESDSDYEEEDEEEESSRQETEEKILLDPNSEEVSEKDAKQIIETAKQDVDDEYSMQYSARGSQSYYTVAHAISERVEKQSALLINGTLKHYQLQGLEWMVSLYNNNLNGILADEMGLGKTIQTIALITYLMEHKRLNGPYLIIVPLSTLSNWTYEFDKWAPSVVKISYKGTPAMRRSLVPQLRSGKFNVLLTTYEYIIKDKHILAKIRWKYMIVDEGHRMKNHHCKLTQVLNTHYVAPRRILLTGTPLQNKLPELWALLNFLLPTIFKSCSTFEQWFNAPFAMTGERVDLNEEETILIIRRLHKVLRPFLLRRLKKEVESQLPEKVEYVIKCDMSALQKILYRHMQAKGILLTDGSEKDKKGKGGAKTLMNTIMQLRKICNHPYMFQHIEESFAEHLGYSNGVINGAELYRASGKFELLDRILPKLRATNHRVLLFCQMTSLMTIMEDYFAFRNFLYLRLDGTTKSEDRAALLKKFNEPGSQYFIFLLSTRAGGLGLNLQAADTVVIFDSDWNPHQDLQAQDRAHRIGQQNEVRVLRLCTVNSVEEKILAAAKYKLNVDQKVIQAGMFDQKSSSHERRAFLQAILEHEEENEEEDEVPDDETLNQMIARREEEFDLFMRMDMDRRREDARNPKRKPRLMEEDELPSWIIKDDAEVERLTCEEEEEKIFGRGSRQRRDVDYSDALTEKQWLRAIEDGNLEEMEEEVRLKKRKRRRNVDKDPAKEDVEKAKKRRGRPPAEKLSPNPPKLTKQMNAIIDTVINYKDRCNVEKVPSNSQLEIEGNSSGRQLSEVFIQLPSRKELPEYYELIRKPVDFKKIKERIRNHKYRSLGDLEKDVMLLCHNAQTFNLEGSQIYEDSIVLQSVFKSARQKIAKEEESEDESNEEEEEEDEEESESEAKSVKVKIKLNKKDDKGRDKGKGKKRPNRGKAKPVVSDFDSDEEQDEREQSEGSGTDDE

SMILES	tumor SMARCA2 protein levels [1]	tumor SMARCA2 protein levels relative to vehicle treated mice [1]	Gene Set Enrichment Analysis: E2F targets and G2/M pathways [2]	TGI (tumor growth inhibition vs vehicle) [3, 9] [%]	Tumor size [3, 10]	TGI (tumor growth inhibition vs vehicle) [3, 11]	cell cycle arrest [4]	cell cycle arrest [5]	Tumor size [6, 12] [mm^3]	TGI (tumor growth inhibition vs vehicle) [6, 12]	TGI (tumor growth inhibition vs vehicle) ([6]; Formula (I) 100 mg/kg s.c. Q3D, docetaxel 10/5 mg/kg i.v. QW, listed as docetaxel) [%]	Tumor size [7]	TGI (tumor growth inhibition vs vehicle) [7]	tolerability (morbidity, body weight) ([3]; Formula (I) s.c. Q3D, docetaxel 5-20 mg/kg i.v. QW, combination)	G1 cell cycle arrest [8]	tolerability (morbidity, body weight) ([6]; Formula (I) 100 mg/kg s.c. Q3D, docetaxel 10/5 mg/kg i.v. QW, combination of both, one Formula (I) dosing holiday on day 12 in combination)	tolerability (morbidity, body weight) ([6]; single agents: Formula (I) 50 or 75 mg/kg i.v. QW, nab-paclitaxel 30 mg/kg i.v. Q3W)	tolerability (morbidity, body weight) ([7]; Formula (I) 100 mg/kg s.c. Q3D, docetaxel 5/10 mg/kg i.v. QW, combination)	growth of SMARCA4 WT Calu-6 lung tumor xenografts ([7]; Formula (I) at efficacious dosing regimens)
CC(=O)O[C@@]12CO[C@@H]1C[C@H](O)[C@@]1(C)C(=O)[C@H](O)C3=C(C)[C@@H](OC(=O)[C@H](O)[C@@H](NC(=O)OC(C)(C)C)c4ccccc4)C[C@@](O)([C@@H](OC(=O)c4ccccc4)[C@H]21)C3(C)C [Docetaxel, reference compound]	no effect	no effect; also recorded: unaffected	positive enrichment of E2F targets and G2/M pathways	13	2,223 ± 300 mm^3	13.3% (day	dose dependent G2/M arrest signal	induced G2/M arrest	971.86 ± 127.82	55.0% (day	55	1,338 ± 132 mm^3	37.6% (day						
Cc1ncsc1-c1ccc([C@H](C)NC(=O)[C@@H]2C[C@@H](O)CN2C(=O)[C@@H](c2cc(O[C@@H](C)CN3CC[C@@H](N4CCN5c6cc(-c7ccccc7O)nnc6NC[C@H]5C4)C3)no2)C(C)C)cc1 [Formula (I)]	complete reduction	significantly decreased; also recorded: abolished	downregulating E2F targets and G2/M pathways	32	1,785 ± 221 mm^3	31.6% (day	dose dependent G1 arrest signal	induced G1 cell cycle arrest	590.46 ± 102.37			1,535 ± 174 mm^3	27.2% (day	well tolerated	not in SMARCA4 wild-type cell lines	well tolerated	well tolerated	well tolerated	did not inhibit the growth
